Source: PMC6060874, “Alanine scan of sialorphin and its hybrids with opiorphin: synthesis, molecular modelling and effect on enkephalins degradation” (Amino Acids, 2018)

What was measured:
[1] = test system: NEP enzyme extracted from porcine kidney; assay: Degradation of Met-enkephalin incubated with NEP alone (without inhibitor); type: in vitro ADME; details: printed value is 1000 × k, Met-enkephalin 0.0413 mM, NEP 5.687 nM, Tris–HCl 50 mM pH 7.4, 37 °C, 0–120 min, RP-HPLC, mean ± SEM, triplicate
Description: (§1) The degradation studies were performed using the NEP enzyme extracted from porcine kidney, acquired from Merck (Warsaw, Poland). Solutions of Met-enkephalin, NEP and inhibitors were prepared by dissolving them in a Tris–HCl buffer (50 mM, pH 7.4). In investigated samples, the concentrations of Met-enkephalin, inhibitors and NEP were, respectively, 0.0413 mM, 0.156 mM and 5.687 nM. The reaction was initiated by addition of enzyme to a solution-containing Met-enkephalin and inhibitor. The samples consisting of the enzyme, Met-enkephalin and inhibitors were incubated over 0, 30, 60, 90, 120 min at 37 °C in a final volume of 300 μL. The reaction was stopped at a predetermined time by placing the tube on ice and acidifying with 30 μL of a 1 M aqueous HCl solution. The aliquots were centrifuged at 14,500 rpm for 20 min. The supernatants were filtered through Millipore Millex-GV syringe filters with 0.22 μm pores (Merck, Warsaw, Poland) and analysed by RP-HPLC on a Phenomenex Gemini-NX C18 column (5 μm, 4.6 mm × 150 mm) using a linear gradient of 3–50% of [B] for 8 min at a flow rate of 2.5 ml/min. Two solvent systems were used: 0.1% TFA in water [A] and 0.1% TFA in acetonitrile [B]. The rate constants of degradation (k) and degradation half-lives (t1/2) were calculated as described elsewhere (Kamysz et al. [2016]; Perlikowska et al. [2012]). All measurements were performed in triplicate. […]

NEP = assay: as above; type: in vitro ADME, porcine; details: pig, NEP enzyme extracted from porcine kidney, Met-enkephalin 0.0413 mM, NEP 5.687 nM, Tris–HCl 50 mM pH 7.4, 37 °C, 0–120 min, RP-HPLC, mean ± SEM, triplicate, read-out: t1/2, half-life of Met-enkephalin incubated with NEP alone
Description: as §1

With `CSCC[C@H](NC(=O)[C@H](Cc1ccccc1)NC(=O)CNC(=O)CNC(=O)[C@@H](N)Cc1ccc(O)cc1)C(=O)O` [Met-enkephalin, Met-enkephalin (Tyr–Gly–Gly–Phe–Met)] the “1000 × k, degradation rate of Met-enkephalin incubated with NEP alone” value [1] was 25.3 ± 1.0 min⁻¹ and the half-life (NEP) was 27 ± 1 min.
